Key:
[1] = tested on: perforin-dependent cytotoxicity of KHYG-1 NK cells on K562 target cells; assay: KHYG-1 cytotoxicity assay (51Cr-labeled K562 target cells); assay type: cell-based; conditions: Homo sapiens; concentration inhibiting 90% of perforin-dependent cytotoxicity; K562 targets, effector/target 2:1, 4 h, RPMI 0.1% BSA; read-out: KHYG-1 IC90
Description: (Table 1). […] An IC90 was used rather than an IC50 as we anticipated that elevated suppression of perforin activity is likely required to preserve the transplanted bone marrow stem cells in vivo.
The inhibition of the cytotoxic activity of KHYG-1 NK cells on K562 target cells was determined as described previously.[14] Briefly, compounds were added to KHYG-1 cells at 6–7 concentrations ranging from 20 μM to 312.5 nM in 2-fold dilutions in RPMI medium (Thermo Fisher Scientific, Waltham, MA) supplemented with 0.1% bovine serum albumin (BSA; Sigma-Aldrich, St. Louis, MO) for 20 min. ^51Cr-labeled K562 leukemia target cells were added to KHYG-1 cells at an effector/target ratio of 2:1 and incubated at 37 °C for 4 h. ^51Cr release was assayed using a Harvesting Press (Skatron Instruments, Lier, Norway), and radioactivity was estimated on a Wallac Wizard 1470 Automatic γ counter (Turku, Finland). The IC90 values were calculated by fitting a four-parameter logistic sigmoidal dose–response curve to the data using Prism version 8 (GraphPad, San Diego, CA). Each IC90 value represents the mean of at least three independent experiments, where six to seven concentrations were tested in triplicate for each compound.

[2] = target: T1, perforin (Mus musculus, UniProt P10820); assay: In vivo perforin inhibition (allogeneic bone marrow transfer assay); conditions: for % perforin inhibition, spleen: 24 h after transplant
T1 construct: endogenous in cells; host or cells: recipient cytotoxic lymphocytes (NK/CTL) of wild-type C57BL/6 mice, in vivo
T1 sequence (P10820 21-554): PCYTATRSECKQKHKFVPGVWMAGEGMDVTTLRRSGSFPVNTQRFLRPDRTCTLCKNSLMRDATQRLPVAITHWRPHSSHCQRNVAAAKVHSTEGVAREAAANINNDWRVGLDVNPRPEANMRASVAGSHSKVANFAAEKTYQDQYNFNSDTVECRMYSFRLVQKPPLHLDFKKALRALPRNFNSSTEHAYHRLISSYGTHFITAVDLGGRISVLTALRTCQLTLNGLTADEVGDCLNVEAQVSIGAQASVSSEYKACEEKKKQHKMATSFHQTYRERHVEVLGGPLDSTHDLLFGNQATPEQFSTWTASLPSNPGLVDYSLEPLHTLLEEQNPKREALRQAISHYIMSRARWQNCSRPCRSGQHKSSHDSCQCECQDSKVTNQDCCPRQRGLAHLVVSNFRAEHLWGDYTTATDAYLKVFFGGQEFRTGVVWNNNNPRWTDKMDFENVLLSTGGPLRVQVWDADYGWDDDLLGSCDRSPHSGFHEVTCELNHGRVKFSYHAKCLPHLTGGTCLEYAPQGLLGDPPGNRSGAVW
Description: This model was selected as a surrogate assay for graft rejection during allogeneic bone marrow/stem cell transplantation to enable rapid testing of perforin inhibition in vivo. Mice were transplanted with a mixture of equal numbers of allogeneic immunologically mismatched and syngeneic immunologically matched bone marrow. […] Allogeneic cell survival in spleen and peripheral blood was determined 24 h after transplant, using C57BL/6 perforin-deficient mice (100% perforin inhibition) and untreated C57BL/6 mice (0% perforin inhibition) as controls.
Compounds were tested for in vivo efficacy as described previously.[14] Age- (8–12 weeks) and sex-matched wild-type (H-2D^b, CD45.2^+) or perforin-deficient C57BL/6 mice (C57BL/6-Prf1^tm1Sdz/J; H-2D^b, CD45.2^+) received 12 ×10^6 bone marrow cells from both allogeneic BALB/c (H-2D^d) MHC-mismatched and syngeneic C57BL/6 (H-2D^b) MHC-matched mice (24 × 10^6 cells total). The wild-type recipient mice were treated with perforin inhibitor compounds by intraperitoneal injection in 20% hydroxypropyl-β-cyclodextrin vehicle (10 mL/kg), or with vehicle alone; perforin-deficient mice remained untreated. The mice were euthanized 24 h after bone marrow transfer for peripheral blood mononuclear cell (PBMC) and spleen collection.
Throughout the study, we utilized two strategies to distinguish between recipient, donor allogeneic, and donor syngeneic cells based on either fluorescent labeling prior to transplant or congenic marker expression (CD45.1/CD45.2). In the fluorescent dye approach, allogeneic wild-type BALB/c (H-2D^d, CD45.2^+) bone marrow was labeled with 1 μM carboxyfluorescein succinimidyl ester (CFSE) prior to mixing with syngeneic bone marrow from C57BL/6 congenic mice (CD45.1^+). Twenty-four hours after cell transfer, the harvested cells were stained with anti-CD45.1-phycoerythrin and anti-TER119-allophycocyanin monoclonal antibodies (BioLegend, San Diego, CA). TER119 was used for erythroid exclusion prior to the identification of allogeneic (CFSE^+) and syngeneic (CD45.1^+) donor cells. Using a second purely congenic marker approach, allogeneic BALB/c congenic (H-2D^d, CD45.1^+) bone marrow was mixed with syngeneic C57BL/6 double congenic (H-2D^b, CD45.1^+CD45.2^+) bone marrow prior to transfer. The harvested cells were stained with anti-CD45.1-phycoerythrin, anti-CD45.2-phycoerythrin-cyanine-7, and anti-TER119-allophycocyanin monoclonal antibodies (BioLegend, San Diego, CA). TER119 was used for erythroid exclusion, prior to identification of allogeneic donor (CD45.1^+), syngeneic donor (CD45.1^+ CD45.2^+), and recipient (CD45.2^+) cells. Dead cells were excluded using 7-aminoactinomycin D. Samples were acquired with an LSR Fortessa (BD Biosciences) and analyzed using FlowJo version 9 software (BD Biosciences). Prism version 9 (GraphPad) was used to calculate CTL indices as the percentage survival of syngeneic donor cells divided by the percentage survival of allogeneic donor cells. […] In vivo perforin inhibition animal experiments were approved by the Animal Ethics Committee of the QIMR Berghofer Medical Research Institute.

[3] = Splenocyte cellularity and tolerability in the bone marrow transfer assay; assay type: in vivo
Description: For the determination of splenic cell counts, mouse spleens were harvested and the cells dispersed in media by gentle teasing and then centrifuged at 500g. Cell pellets were resuspended in media and total spleen cell counts were performed manually using a standard hemocytometer and light microscopy. […] Peripheral blood cell counts and spleen white blood cell counts were determined on a Beckman Coulter Ac.T diff hematology analyzer.

[4] = design: method as in PMID 28582670; AUC: concentration or dose not given beside the values; conditions: mouse plasma; cited from earlier work
[5] = Plasma protein binding by equilibrium dialysis; assay type: in vitro ADME, mouse; conditions: CD1, pH 7.4; mouse plasma, 10 μM, equilibrium dialysis
Description: The plasma protein binding of the compounds was determined by equilibrium dialysis (12–14 kDa cutoff membrane). […] The dialysis unit was covered with an adhesive sealing film to prevent evaporation of the contents and placed in an incubator (Innova-42, New Brunswick Scientific) maintained at 37 °C with gentle mixing (80 rpm) for 6 h. Next, a 10 μL sample was aspirated from the plasma side and mixed with 90 μL of fresh PBS, whereas a 90 μL sample from the buffer side was removed and combined with 10 μL of drug-free plasma to ensure uniform matrix composition. Ice-cold acetonitrile (300 μL; Merck Millipore, Burlington, MA) containing internal standard (a BZS analogue of similar chemical structure) was added to each sample to precipitate protein and was vortexed for 2 min and centrifuged for 5 min at 13 000 rpm. The supernatant was diluted with 0.01% formic acid in ultrapure water (Milli-Q) (1:1) and quantitated by liquid chromatography–tandem mass spectrometry (LC-MS/MS). Each compound was tested in triplicate alongside control compounds known to have low (e.g., lidocaine) and high (e.g., amitriptyline) plasma protein binding. For media binding studies, the same assay was used, but RPMI with 0.1% BSA was used in place of CD1 mouse plasma.

[6] = tested on: recombinant perforin; design: method as in PMID 28582670, PMID 28110869; conditions: lytic activity of recombinant perforin against Jurkat T leukemia cells; cited from earlier work
[7] = all dose levels (100, 75 and 50% of MTD), qd x 4
[8] = 100 mg/kg qd x 4 (0, 24, 48 h prior to and 18 h after transfer)

| fraction unbound at 6 h, 10 μM [5] | % perforin inhibition, spleen [2, 8] | % perforin inhibition, spleen ([2]; 160 mg/kg qd x 4 (0, 24, 48 h prior to and 18 h after transfer)) | SMILES | IC90 [1] | % perforin inhibition, spleen ([2]; 60 mg/kg qd x 4 (0, 24, 48 h prior to and 18 h after transfer)) | % perforin inhibition, spleen ([2]; 90 mg/kg qd x 4 (0, 24, 48 h prior to and 18 h after transfer)) | reductions in splenocyte number [3, 7] | tolerability [3, 7] | AUC [4] | Cmax [4] | % perforin inhibition, spleen ([2]; 120 mg/kg qd x 4 (0, 24, 48 h prior to and 18 h after transfer)) | increase in allogeneic bone marrow survival in the spleen, % of that seen in perforin-deficient mice ([2]; dose at or near the MTD, 0, 24, 48 h prior to and 18 h after cell transfer) | reduction in splenocyte cellularity ([3]; dose at or near MTD, qd x 4, after allogeneic bone marrow transplantation) | IC50 [6] |
| --- | --- | --- | --- | --- | --- | --- | --- | --- | --- | --- | --- | --- | --- | --- |
| 0.0023 | 22.70% | – | CN1Cc2cc(-c3ccc(-c4cncc(NS(=O)(=O)c5ccc(C#N)cc5)c4)s3)ccc2C1=O [Compound 6, 4-cyano-N-{5-[5-(2-methyl-1-oxo-2,3-dihydro-1H-isoindol-5-yl)-2-thienyl]-3-pyridinyl}benzenesulfonamide] | 30.9 ± 10.5 µM | – | – | – | – | 642 µM·h | 87.3 µM | – | – | – | 5.17 µM |
| 0.0003 | – | 39.14% | CN1Cc2cc(-c3ccc(-c4cnc(F)c(NS(=O)(=O)c5ccc(F)cc5F)c4)s3)ccc2C1=O [Compound 8, 2,4-difluoro-N-{2-fluoro-5-[5-(2-methyl-1-oxo-2,3-dihydro-1H-isoindol-5-yl)-2-thienyl]-3-pyridinyl}benzenesulfonamide] | 3.54 ± 0.65 µM | – | – | – | – | 2885 µM·h | 236 µM | – | – | – | 1.99 µM |

The next lines start with the molecule.

| SMILES | fraction unbound at 6 h, 10 μM [5] | % perforin inhibition, spleen [2, 8] | % perforin inhibition, spleen ([2]; 160 mg/kg qd x 4 (0, 24, 48 h prior to and 18 h after transfer)) | IC90 [1] | % perforin inhibition, spleen ([2]; 60 mg/kg qd x 4 (0, 24, 48 h prior to and 18 h after transfer)) | % perforin inhibition, spleen ([2]; 90 mg/kg qd x 4 (0, 24, 48 h prior to and 18 h after transfer)) | reductions in splenocyte number [3, 7] | tolerability [3, 7] | AUC [4] | Cmax [4] | % perforin inhibition, spleen ([2]; 120 mg/kg qd x 4 (0, 24, 48 h prior to and 18 h after transfer)) | increase in allogeneic bone marrow survival in the spleen, % of that seen in perforin-deficient mice ([2]; dose at or near the MTD, 0, 24, 48 h prior to and 18 h after cell transfer) | reduction in splenocyte cellularity ([3]; dose at or near MTD, qd x 4, after allogeneic bone marrow transplantation) | IC50 [6] |
| --- | --- | --- | --- | --- | --- | --- | --- | --- | --- | --- | --- | --- | --- | --- |
| CN1Cc2cc(-c3ccc(-c4cncc(NS(=O)(=O)c5ccc(F)cc5F)c4)s3)ccc2C1=O [Compound 3, 2,4-difluoro-N-{5-[5-(2-methyl-1-oxo-2,3-dihydro-1H-isoindol-5-yl)-2-thienyl]-3-pyridinyl}benzenesulfonamide] | – | – | – | 16 ± 3.6 µM | 7% | 10% | only minor reductions | well tolerated | 220 µM·h | 9.8 µM | – | – | – | – |
| CN1Cc2cc(-c3ccc(-c4cnc(Cl)c(NS(=O)(=O)c5ccc(F)cc5F)c4)s3)ccc2C1=O [Compound 9, N-{2-chloro-5-[5-(2-methyl-1-oxo-2,3-dihydro-1H-isoindol-5-yl)-2-thienyl]-3-pyridinyl}-2,4-difluorobenzenesulfonamide] | 0.0002 | – | – | 1.86 ± 0.44 µM | – | – | – | – | 2364 µM·h | 149 µM | 61.28% | 61% | much higher | 1.03 µM |
| CN1Cc2cc(-c3ccc(-c4cncc(NS(=O)(=O)c5c(F)cc(F)cc5F)c4)s3)ccc2C1=O [Compound 5, 2,4,6-trifluoro-N-{5-[5-(2-methyl-1-oxo-2,3-dihydro-1H-isoindol-5-yl)-2-thienyl]-3-pyridinyl}benzenesulfonamide] | 0.0048 | 14.88% | – | 10.1 ± 1.8 µM | – | – | – | – | 1019 µM·h | 124 µM | – | – | – | 1.76 µM |
| CN1Cc2cc(-c3ccc(-c4cncc(NS(=O)(=O)c5ccc([N+](=O)[O-])cc5)c4)s3)ccc2C1=O [Compound 4, N-{5-[5-(2-methyl-1-oxo-2,3-dihydro-1H-isoindol-5-yl)-2-thienyl]-3-pyridinyl}-4-nitrobenzenesulfonamide] | 0.0031 | 80.53% | – | 19.9 ± 3.7 µM | – | – | – | – | 383 µM·h | 64.4 µM | – | – | – | 3.13 µM |

— paper PMC9194936, “Preclinical Activity and Pharmacokinetic/Pharmacodynamic Relationship for a Series of Novel Benzenesulfonamide Perforin Inhibitors” (ACS Pharmacology & Translational Science, 2022)
